Measurements from patent US12590092B2, “Antiviral agents and uses thereof” (GRIFFITH UNIVERSITY, priority 2021, dated 2026).
Read-outs that look alike come from different tables or passages of the source.

What was measured:
[1] = target: hPIV-3 C243 HN (haemagglutination function) (UniProt P08492, species not given/STRAIN_C243); assay: Haemagglutination inhibition assay, hPIV-3 C243; type: biochemical, hPIV-3 (strain C-243); settings: 1% human red blood cells
[2] = target: hPIV-3 C243 HN (neuraminidase function) (UniProt P08492, species not given/STRAIN_C243); assay: Neuraminidase inhibition assay (MUN), hPIV-3 C243; type: biochemical, hPIV-3 (strain C-243); settings: pH 4.6
[3] = target: hPIV-3 CI002 HN (neuraminidase function) (UniProt P08492, species not given/STRAIN_CI002); assay: Neuraminidase inhibition assay (MUN), hPIV-3 CI002; type: biochemical, hPIV-3 (strain CI002, clinical isolate); settings: pH 4.6
[4] = target: hPIV-1 C35 HN (neuraminidase function) (Human parainfluenza 1 virus, UniProt P16071); assay: Neuraminidase inhibition assay (MUN), hPIV-1 C35; type: biochemical, hPIV-1 (strain C-35)
hPIV-3 C243 = assay: In situ ELISA virus growth inhibition, hPIV-3 C243; type: cell-based, hPIV-3 (strain C243) in LLC-MK2 cells (Rhesus monkey kidney); settings: read-out: Viral Growth IC50
hPIV-3 CI002 = assay: In situ ELISA virus growth inhibition, hPIV-3 CI002; type: cell-based; settings: Human respirovirus 3, in Macaca mulatta, LLC-MK2 cells, 36-40 h, read-out: Viral Growth IC50 (converted)
[5] = target: hPIV-3 CI002 HN (haemagglutination function) (UniProt P08492, species not given/STRAIN_CI002); assay: Haemagglutination inhibition assay, hPIV-3 CI002; type: biochemical, hPIV-3 (strain CI002, clinical isolate); settings: 1% human red blood cells
[6] = target: hPIV-1 C35 HN (haemagglutination function) (Human parainfluenza 1 virus, UniProt P16071); assay: Haemagglutination inhibition assay, hPIV-1 C35; type: biochemical, hPIV-1 (strain C-35)
[7] = Human respirovirus 3, in Macaca mulatta, hPIV-3 C243, LLC-MK2 cells, in situ ELISA, 36-40 h
[8] = Human respirovirus 3, LLC-MK2, in Macaca mulatta

Sequence of hPIV-3 C243 HN (haemagglutination function) (P08492 whole entry, change not shown): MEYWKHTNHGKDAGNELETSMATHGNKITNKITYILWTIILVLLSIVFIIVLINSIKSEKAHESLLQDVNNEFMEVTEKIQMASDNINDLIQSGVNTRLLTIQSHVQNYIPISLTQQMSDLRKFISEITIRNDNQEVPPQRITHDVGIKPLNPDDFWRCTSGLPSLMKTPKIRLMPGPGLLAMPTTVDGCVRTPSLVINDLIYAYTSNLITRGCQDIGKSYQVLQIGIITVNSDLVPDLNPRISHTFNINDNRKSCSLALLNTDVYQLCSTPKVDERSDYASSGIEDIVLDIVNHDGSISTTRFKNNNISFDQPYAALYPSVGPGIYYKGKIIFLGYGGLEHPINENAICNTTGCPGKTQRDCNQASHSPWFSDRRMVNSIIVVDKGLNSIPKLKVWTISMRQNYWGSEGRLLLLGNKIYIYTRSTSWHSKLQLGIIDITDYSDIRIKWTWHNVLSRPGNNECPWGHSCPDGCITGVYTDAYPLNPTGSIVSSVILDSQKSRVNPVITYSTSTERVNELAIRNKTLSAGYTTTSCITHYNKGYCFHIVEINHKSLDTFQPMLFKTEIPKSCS
Sequence of hPIV-3 CI002 HN (neuraminidase function) (P08492 whole entry, change not shown): as above
Sequence of hPIV-3 CI002 HN (haemagglutination function) (P08492 whole entry, change not shown): as above
Sequence of hPIV-3 C243 HN (neuraminidase function) (P08492 whole entry, change not shown): as above
Sequence of hPIV-1 C35 HN (haemagglutination function) (P16071 whole entry): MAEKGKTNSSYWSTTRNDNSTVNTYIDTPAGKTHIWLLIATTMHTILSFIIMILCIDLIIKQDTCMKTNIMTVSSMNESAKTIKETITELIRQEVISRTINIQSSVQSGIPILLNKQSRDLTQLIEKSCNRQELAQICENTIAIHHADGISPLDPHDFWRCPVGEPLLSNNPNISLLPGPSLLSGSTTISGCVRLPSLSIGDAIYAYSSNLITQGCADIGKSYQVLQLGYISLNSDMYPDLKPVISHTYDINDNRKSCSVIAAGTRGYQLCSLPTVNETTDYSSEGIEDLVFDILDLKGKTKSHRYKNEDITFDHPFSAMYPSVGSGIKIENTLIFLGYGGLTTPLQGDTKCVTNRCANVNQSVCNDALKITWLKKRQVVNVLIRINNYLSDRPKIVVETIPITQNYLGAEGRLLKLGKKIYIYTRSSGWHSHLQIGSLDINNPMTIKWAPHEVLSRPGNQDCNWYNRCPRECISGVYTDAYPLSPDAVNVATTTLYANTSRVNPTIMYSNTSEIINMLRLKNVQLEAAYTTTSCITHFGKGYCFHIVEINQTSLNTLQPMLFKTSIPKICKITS
Sequence of hPIV-1 C35 HN (neuraminidase function) (P16071 whole entry): as above

| Compound | IC50 [1] [µM] | IC50 [2] [µM] | IC50 [3] [µM] | IC50 [4] [µM] | IC50 (hPIV-3 C243; [7]) [µM] | IC50 (hPIV-3 CI002) [µM] | IC50 [5] [µM] | IC50 [6] [µM] | IC50 (hPIV-3 C243; [8]) [µM] |
| --- | --- | --- | --- | --- | --- | --- | --- | --- | --- |
| CC(C)C(=O)N[C@H]1[C@H]([C@H](O)[C@H](O)CO)OC(C(=O)O)=C[C@@H]1n1nnc2ccc3[nH]ccc3c21 (single isomer, unassigned) [IE1963-113a] | 36.7 | 17 ± 0.764 | 34.9 | 6.33 | 111 ± 9.29 | 42.6 |  |  |  |
| CC(C)C(=O)N[C@H]1[C@H]([C@H](O)[C@H](O)CO)OC(C(=O)O)=C[C@@H]1n1nnc2c3cc[nH]c3ccc21 (single isomer, unassigned) [IE1963-113b] | 3 | 5.14 ± 0.777 | 17.1 | 8.4 | 24.4 ± 3.35 | 8.7 |  |  |  |
| O=C(O)C1=C[C@H](n2cc3ccncc3n2)[C@@H](NC(=O)C(F)(F)F)[C@H]([C@H](O)[C@H](O)CO)O1 [JC2001-48, 2,6-Anhydro-3,4,5-trideoxy-5-(2,2,2-trifluoroacetamido)-4-(2H-pyrazolo[3,4-c]pyridin-2-yl)-D-glycero-D-galacto-non-2-enonic Acid] | 13.1 | 21.5 | 29.2 | 1.71 |  | 8.48 | 4.94 | 0.27 | 54.5 ± 16.1 |
| O=C(O)C1=C[C@H](n2cc3ncccc3n2)[C@@H](NC(=O)C(F)(F)F)[C@H]([C@H](O)[C@H](O)CO)O1 [JC2001-49, 2,6-Anhydro-3,4,5-trideoxy-5-(2,2,2-trifluoroacetamido)-4-(2H-pyrazolo[4,3-b]pyridin-2-yl)-D-glycero-D-galacto-non-2-enonic Acid] | 13.1 | 8.33 ± 1.24 | 15.1 | 23.2 |  | 11.5 | 4.94 | 14.8 | 26.9 |
| CC(C)C(=O)N[C@H]1[C@H]([C@H](O)[C@H](O)CO)OC(C(=O)O)=C[C@@H]1n1cc2cc(F)sc2c1C#N [RE1993-40] | 0.735 ± 0.259 | 1.14 ± 0.021 | 2.71 | 5.41 | 3.22 ± 0.726 | 3.96 | 0.82 | 22.2 |  |
| O=C(O)C1=C[C@H](n2cc3ccc4cccnc4c3n2)[C@@H](NC(=O)C(F)(F)F)[C@H]([C@H](O)[C@H](O)CO)O1 [RP1967-89, 2,6-Anhydro-3,4,5-trideoxy-5-(2,2,2-trifluoroacetamida)-4-(2H-pyrazolo[4,3-h]quinolin-2-yl)-D-glycero-D-galacto-non-2-enonic Acid] | 3 | 5.52 ± 0.983 | 19.9 | 88.9 |  | 5 | 4.94 | > 200 | 9.67 |
